Literature values in patent publication US20240307296A1, “SUBCUTANEOUS BIODEGRADABLE NALTREXONE IMPLANT AND ACCOMPANYING BEHAVIORAL PROGRAM FOR WEIGHT LOSS IN A PATIENT” (Biocorrx, priority 2017, published 2024).

Test system: fasting insulin levels
Details: in vivo

For O=C1CC[C@@]2(O)[C@H]3Cc4ccc(O)c5c4[C@@]2(CCN3CC2CC2)[C@H]1O5 [Naltrexone, N-Cyclopropylmethylnoroxymorphone], the “Lowering of fasting insulin levels” value is given as “up to 40%”.
